# Assay results taken from ChEMBL document CHEMBL1201862, “PubChem BioAssay data set” (2004).
# Activity calls are given as the source filed them.
# Assays:
# [1] = biological target: T1, Short transient receptor potential channel 4 (Mus musculus, UniProt Q9QUQ5); assay: calcium entry via TRPC4 opening agents – cell-based, HEK293 TRPC4/mu-opioid, Fluo-4 calcium, dose response (AID 434937); type: functional
# T1 sequence (Q9QUQ5 whole entry): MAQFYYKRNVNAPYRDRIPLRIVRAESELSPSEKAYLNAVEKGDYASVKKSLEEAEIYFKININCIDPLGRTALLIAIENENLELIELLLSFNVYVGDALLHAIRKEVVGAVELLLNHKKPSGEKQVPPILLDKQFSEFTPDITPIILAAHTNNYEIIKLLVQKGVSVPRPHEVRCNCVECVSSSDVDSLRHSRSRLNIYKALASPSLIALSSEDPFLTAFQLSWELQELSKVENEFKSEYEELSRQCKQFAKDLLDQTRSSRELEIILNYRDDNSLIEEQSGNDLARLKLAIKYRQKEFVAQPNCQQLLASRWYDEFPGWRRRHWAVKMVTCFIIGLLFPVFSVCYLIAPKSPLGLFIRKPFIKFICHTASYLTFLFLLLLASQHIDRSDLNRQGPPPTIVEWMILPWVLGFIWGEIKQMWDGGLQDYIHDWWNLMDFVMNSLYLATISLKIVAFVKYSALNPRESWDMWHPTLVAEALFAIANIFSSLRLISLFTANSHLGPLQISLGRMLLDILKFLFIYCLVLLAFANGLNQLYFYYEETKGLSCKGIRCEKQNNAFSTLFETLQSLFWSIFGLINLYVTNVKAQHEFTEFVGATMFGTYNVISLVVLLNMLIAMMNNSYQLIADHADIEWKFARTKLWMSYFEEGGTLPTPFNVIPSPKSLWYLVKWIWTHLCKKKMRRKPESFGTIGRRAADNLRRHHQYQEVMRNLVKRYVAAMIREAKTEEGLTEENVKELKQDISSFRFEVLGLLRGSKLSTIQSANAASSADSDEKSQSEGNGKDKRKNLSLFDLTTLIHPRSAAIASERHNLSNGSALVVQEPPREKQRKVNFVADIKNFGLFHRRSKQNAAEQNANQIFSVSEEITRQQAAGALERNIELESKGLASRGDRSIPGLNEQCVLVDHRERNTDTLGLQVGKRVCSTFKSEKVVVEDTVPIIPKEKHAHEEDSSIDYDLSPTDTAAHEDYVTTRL
# [2] = biological target: DNA dC->dU-editing enzyme APOBEC-3G (Homo sapiens, UniProt Q9HC16); assay: Dose Response confirmation of small molecule APOBEC3G DNA Deaminase Inhibitors via a fluorescence-based single-stranded DNA deaminase assay. [Related pubchem assays (depositor defined):AID493012, AID493028]; type: functional
# Chain of DNA dC->dU-editing enzyme APOBEC-3G (Q9HC16 whole entry): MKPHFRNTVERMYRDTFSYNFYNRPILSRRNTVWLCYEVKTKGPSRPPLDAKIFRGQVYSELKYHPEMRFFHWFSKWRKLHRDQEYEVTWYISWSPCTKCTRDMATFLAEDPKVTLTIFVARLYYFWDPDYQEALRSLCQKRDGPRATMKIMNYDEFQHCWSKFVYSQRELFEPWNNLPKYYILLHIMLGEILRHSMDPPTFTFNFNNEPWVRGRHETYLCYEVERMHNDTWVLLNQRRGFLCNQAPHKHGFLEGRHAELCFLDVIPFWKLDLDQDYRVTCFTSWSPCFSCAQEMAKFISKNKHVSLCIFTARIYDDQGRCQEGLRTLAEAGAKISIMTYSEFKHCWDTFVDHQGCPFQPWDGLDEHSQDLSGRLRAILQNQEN
# [3] = system: Vero; assay: cells; type: functional; details: Chlorocebus sabaeus
# [4] = biological target: Voltage-dependent T-type calcium channel subunit alpha-1H (Homo sapiens, UniProt O95180); type: functional;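 also: channel activity triggered by adding a high calcium stimulation buffer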
# Chain of Voltage-dependent T-type calcium channel subunit alpha-1H (O95180 whole entry): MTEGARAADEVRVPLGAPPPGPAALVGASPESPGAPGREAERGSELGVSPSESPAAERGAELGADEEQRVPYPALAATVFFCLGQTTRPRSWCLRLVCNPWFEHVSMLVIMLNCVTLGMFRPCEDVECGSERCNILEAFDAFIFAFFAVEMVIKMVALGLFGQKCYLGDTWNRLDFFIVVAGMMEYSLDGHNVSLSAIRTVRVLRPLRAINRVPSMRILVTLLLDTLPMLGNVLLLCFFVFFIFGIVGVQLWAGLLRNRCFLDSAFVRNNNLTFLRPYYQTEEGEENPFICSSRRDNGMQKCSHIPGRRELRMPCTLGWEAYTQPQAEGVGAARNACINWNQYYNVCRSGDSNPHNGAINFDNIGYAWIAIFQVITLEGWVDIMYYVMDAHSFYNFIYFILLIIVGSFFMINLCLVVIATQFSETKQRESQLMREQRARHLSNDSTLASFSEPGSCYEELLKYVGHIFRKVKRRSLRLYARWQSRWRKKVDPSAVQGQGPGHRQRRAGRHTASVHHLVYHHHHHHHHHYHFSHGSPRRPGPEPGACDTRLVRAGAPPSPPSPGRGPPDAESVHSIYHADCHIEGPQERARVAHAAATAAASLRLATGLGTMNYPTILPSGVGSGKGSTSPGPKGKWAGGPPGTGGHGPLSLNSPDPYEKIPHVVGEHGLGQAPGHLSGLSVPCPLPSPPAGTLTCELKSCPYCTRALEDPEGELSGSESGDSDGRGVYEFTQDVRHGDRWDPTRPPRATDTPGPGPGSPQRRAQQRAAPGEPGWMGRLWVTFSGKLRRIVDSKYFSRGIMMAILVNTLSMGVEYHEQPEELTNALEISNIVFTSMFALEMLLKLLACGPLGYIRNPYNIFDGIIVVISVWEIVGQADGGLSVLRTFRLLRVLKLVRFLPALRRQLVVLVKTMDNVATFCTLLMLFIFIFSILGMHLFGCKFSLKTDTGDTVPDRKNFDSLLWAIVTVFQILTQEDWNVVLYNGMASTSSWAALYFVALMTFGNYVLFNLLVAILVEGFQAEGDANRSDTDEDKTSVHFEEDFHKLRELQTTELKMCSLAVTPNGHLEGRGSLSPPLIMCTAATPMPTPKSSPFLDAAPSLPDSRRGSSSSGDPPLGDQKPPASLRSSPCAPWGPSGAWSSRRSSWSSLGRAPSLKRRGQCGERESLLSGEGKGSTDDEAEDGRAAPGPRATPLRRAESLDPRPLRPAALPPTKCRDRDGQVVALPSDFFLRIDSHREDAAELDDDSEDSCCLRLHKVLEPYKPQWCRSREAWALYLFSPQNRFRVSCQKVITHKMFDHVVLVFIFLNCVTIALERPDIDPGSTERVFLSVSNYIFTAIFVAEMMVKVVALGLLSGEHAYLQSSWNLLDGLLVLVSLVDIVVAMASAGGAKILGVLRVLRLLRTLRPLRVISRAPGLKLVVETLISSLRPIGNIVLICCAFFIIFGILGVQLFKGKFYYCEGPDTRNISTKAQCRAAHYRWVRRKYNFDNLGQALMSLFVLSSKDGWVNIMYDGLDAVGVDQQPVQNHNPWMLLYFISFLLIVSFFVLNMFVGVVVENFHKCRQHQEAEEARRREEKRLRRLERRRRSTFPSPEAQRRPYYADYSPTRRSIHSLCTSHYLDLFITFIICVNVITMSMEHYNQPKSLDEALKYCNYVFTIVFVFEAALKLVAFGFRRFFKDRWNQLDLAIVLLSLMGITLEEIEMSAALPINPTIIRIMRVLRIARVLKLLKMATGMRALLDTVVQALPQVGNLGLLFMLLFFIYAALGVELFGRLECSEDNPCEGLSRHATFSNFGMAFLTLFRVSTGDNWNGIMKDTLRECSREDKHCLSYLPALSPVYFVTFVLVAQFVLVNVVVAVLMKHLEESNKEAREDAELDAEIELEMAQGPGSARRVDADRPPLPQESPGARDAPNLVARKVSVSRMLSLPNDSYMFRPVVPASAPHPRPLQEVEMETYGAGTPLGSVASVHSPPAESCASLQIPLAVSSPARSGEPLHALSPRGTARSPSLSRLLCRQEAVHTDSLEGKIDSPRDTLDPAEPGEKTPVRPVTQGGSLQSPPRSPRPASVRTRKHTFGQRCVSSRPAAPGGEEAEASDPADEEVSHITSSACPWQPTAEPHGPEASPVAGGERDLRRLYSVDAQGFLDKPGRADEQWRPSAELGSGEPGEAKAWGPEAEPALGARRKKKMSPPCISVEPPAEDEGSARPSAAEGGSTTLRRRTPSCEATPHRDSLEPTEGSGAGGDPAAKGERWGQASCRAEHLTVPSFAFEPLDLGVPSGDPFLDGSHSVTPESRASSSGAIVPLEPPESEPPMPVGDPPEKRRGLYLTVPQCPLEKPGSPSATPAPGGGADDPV
# [5] = biological target: Glyceraldehyde-3-phosphate dehydrogenase (Homo sapiens, UniProt P04406)
# Chain of Glyceraldehyde-3-phosphate dehydrogenase (P04406 whole entry): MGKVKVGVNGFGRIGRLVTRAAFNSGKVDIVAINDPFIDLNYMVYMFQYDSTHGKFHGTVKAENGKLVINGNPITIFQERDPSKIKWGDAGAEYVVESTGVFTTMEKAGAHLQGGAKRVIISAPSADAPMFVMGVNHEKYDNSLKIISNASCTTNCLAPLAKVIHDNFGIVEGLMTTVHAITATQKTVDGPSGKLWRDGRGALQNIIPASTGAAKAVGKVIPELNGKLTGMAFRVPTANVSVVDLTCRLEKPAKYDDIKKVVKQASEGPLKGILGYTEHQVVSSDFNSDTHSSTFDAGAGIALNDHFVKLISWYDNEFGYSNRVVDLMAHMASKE
# [6] = biological target: T2, Alkaline phosphatase, tissue-nonspecific isozyme (Homo sapiens, UniProt P05186); assay: potency against alkaline phosphatase TNAP – biochemical, luminescent, dose response, SAR follow-up (AID 1056)
# T2 sequence (P05186 whole entry): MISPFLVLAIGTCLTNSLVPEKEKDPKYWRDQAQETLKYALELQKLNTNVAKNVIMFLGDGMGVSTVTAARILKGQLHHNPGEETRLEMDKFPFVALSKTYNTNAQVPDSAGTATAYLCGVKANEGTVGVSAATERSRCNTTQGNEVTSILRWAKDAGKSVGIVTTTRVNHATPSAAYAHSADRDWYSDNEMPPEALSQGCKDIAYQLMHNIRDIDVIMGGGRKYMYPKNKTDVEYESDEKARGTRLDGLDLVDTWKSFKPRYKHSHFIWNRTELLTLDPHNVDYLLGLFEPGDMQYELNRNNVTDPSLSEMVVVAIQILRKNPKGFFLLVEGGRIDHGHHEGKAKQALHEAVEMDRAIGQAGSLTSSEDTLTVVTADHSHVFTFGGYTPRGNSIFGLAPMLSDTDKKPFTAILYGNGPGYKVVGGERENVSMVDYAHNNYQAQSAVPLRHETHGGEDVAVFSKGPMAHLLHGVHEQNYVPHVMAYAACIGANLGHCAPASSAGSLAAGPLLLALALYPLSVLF
# [7] = biological target: Alkaline phosphatase, placental type (Homo sapiens, UniProt P05187); assay: human placental alkaline phosphatase inhibition – biochemical, luminescence, confirmation (AID 1512); type: functional
# Chain of Alkaline phosphatase, placental type (P05187 whole entry): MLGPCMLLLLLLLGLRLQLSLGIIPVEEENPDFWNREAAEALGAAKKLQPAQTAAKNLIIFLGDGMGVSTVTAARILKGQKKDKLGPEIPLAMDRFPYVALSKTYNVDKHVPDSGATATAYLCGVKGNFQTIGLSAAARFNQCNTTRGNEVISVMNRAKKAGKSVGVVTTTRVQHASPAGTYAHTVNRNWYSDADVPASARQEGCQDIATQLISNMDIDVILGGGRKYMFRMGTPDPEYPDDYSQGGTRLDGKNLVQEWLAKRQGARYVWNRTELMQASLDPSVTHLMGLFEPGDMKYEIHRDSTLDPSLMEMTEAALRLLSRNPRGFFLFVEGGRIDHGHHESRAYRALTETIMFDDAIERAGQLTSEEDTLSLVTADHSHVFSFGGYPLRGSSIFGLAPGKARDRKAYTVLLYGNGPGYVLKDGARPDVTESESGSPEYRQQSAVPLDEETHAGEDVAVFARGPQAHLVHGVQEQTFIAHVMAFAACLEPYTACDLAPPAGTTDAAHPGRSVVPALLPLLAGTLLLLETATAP
# [8] = NIH3T3 cell viability loss – ATP luminescence, mouse fibroblasts, counter-screen, dose response (AID 2010); type: functional, cell-based;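 also: cells exposed to compound for about 90 hours before reading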
# [9] = Trypanosoma cruzi growth suppression in host cells – NIH3T3 host cells, beta-gal luminescence, confirmation (AID 2044); type: functional, cell-based;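 also: intracellular parasites grown in NIH/3T3 mouse fibroblasts as host cells; luminescent beta-galactosidase reporter signal from transgenic T. cruzi replicating inside host cells; inhibitors lower the luminescence signal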
# [10] = THP-1 cell cytotoxicity, dose response, cytotoxicity control for non-replicating M. tuberculosis project (AID 489025); type: functional
# [11] = HepG2 cell cytotoxicity, dose response, cytotoxicity control for non-replicating M. tuberculosis project (AID 489018); type: functional; details: Mycobacterium tuberculosis
# [12] = cells; type: functional
# [13] = general cell-killing toxicity readout – plate reader, dry powder samples, cytotoxicity control for PAX8 inhibitor project, dose response (AID 743021); type: functional, cell-based
# [14] = system: BJ; assay: BJ-TERT-LT-ST fibroblast viability loss – cell-based, RAS-independent, luminescence, dose response (AID 1935); type: functional; details: Homo sapiens;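 also: BJ fibroblasts immortalized with TERT plus LT and ST oncogenes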
# [15] = system: BJ; assay: cells; type: functional, cell-based; details: Homo sapiens
# [16] = system: BJ; assay: BJ-TERT fibroblast viability loss – cell-based, RAS-independent, luminescence, dose response (AID 1933); type: functional; details: Homo sapiens
# [17] = alpha-synuclein stem-loop luciferase translation blockers – H4 neuroglioma cells, luminescence, confirmation (AID 1988); type: functional, cell-based
# [18] = Luminescence-based dose response cell-based high throughput screening assay for cytotoxic compounds using the IEC-6 intestinal epithelial cell line. [Related pubchem assays: 1858 (Summary AID.), 1825 (Counterscreen.), 1907 (Confirmation screen.)]; type: functional
# [19] = biological target: T3, Protein RecA (Mycobacterium tuberculosis, UniProt P9WHJ3); assay: Fluorescence Cell-Free Homogeneous Dose Retest to Identify Inhibitors of RecA-Intein Splicing Activity. [Related pubchem assays (depositor defined):AID2097, AID2223, AID489010, AID492950]; type: functional
# T3 sequence (P9WHJ3 whole entry): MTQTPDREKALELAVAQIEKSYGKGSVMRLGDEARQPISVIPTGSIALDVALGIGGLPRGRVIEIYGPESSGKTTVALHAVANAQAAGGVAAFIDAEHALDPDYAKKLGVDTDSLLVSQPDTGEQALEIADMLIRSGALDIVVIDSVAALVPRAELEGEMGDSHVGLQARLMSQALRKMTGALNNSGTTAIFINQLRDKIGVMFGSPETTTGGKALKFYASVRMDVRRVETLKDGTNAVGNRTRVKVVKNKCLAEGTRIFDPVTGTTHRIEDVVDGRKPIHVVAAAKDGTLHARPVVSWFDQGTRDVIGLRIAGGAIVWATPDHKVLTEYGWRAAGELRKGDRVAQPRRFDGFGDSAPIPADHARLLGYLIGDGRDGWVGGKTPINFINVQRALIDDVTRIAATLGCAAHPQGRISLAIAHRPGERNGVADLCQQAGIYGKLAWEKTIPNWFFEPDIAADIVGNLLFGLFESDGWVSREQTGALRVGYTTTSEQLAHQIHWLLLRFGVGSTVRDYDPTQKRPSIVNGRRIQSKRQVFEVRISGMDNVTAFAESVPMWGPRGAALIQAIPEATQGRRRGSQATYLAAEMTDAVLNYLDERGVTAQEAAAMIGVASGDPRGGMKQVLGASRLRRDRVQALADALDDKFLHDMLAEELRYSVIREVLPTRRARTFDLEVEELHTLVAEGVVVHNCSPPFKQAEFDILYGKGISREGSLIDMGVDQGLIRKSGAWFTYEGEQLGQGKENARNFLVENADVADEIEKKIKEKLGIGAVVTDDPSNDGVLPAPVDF
# [20] = biological target: T4, Replicative DNA helicase DnaB (Mycobacterium tuberculosis, UniProt P9WMR3); assay: DnaB intein splicing inhibitors, dose response, biochemical, cell-free fluorescence (AID 449749); type: functional
# T4 sequence (P9WMR3 whole entry): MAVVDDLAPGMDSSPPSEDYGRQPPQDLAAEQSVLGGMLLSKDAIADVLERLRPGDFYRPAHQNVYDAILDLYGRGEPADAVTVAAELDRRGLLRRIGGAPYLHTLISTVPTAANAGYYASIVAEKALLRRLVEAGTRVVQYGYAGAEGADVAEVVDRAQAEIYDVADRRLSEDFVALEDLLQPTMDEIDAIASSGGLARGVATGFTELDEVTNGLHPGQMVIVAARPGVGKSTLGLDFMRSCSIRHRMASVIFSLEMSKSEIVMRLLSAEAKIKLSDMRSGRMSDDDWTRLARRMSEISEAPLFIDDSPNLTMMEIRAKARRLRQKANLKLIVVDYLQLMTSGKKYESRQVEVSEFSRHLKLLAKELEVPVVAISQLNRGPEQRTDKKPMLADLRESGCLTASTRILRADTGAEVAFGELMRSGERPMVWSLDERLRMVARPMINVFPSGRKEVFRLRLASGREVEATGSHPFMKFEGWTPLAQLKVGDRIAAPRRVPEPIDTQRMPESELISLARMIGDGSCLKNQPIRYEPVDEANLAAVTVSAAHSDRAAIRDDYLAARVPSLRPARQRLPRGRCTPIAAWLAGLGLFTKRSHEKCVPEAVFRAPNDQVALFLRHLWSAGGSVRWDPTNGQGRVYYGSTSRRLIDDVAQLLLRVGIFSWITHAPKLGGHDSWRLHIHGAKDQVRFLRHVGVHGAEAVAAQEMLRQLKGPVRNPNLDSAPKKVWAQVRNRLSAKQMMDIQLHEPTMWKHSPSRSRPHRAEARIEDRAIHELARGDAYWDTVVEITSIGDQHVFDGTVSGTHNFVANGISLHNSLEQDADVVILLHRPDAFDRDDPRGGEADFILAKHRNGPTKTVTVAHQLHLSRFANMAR
# [21] = system: INS1; assay: INS-1E survival protection against cytokine death – cell-based, luminescence, retest, dose response (AID 449756); type: functional; details: Rattus norvegicus;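 also: cell death triggered by IL-1 beta plus TNF-alpha plus IFN-gamma mixture; protective hits raise ATP signal compared with cytokine alone wells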
# [22] = Luminescence Cell-Based Dose Response HTS to Identify Inhibitors of 5'UTR Stem-Loop Driven Prion Protein mRNA Translation in H4 Neuroglioblastoma Cells. [Related pubchem assays: 1827 (Project Summary), 1813 (Primary HTS)]; type: functional
# [23] = biological target: Paired box protein Pax-8 (Homo sapiens, UniProt Q06710); assay: PAX8 transcriptional activity inhibition in RMG-I – RMG-I cells, luciferase, cherry-pick, dose response (AID 687027); type: functional, cell-based;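 also: luciferase reporter driven by Pax8 target thyroperoxidase promoter measured by SteadyGlo luminescence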
# Chain of Paired box protein Pax-8 (Q06710 whole entry): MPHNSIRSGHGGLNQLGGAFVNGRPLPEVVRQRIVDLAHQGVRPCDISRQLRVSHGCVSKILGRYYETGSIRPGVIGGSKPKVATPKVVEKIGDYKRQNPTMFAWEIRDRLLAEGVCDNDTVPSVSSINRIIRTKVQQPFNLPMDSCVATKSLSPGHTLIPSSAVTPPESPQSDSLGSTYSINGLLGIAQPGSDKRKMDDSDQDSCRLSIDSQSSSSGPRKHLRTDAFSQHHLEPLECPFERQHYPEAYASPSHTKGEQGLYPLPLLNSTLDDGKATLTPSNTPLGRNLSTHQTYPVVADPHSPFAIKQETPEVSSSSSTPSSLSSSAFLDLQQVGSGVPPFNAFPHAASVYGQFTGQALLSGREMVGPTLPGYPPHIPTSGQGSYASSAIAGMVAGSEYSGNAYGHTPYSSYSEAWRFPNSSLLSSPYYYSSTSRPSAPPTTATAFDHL
# [24] = DRD fibroblast viability loss – cell-based, non-viral oncogenic, luminescence, dose response (AID 1934); type: functional; details: Homo sapiens
# [25] = luciferase reporter signal suppression in cells – H4 neuroglioma cells, luminescence, dose response (AID 1990); type: functional, cell-based
# [26] = system: BJ; assay: growth inhibition of engineered Ras-driven BJ cells – cell-based, alamar blue fluorescence, cherrypicked samples, dose response (AID 2631); type: functional; details: Homo sapiens;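 also: confirmatory dose-response assay in RAS-dependent BJ fibroblasts engineered with TERT, LT and ST, with cytotoxicity read by fluorescence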
# [27] = Vero E6 cell cytotoxicity, dose response, cytotoxicity control for non-replicating M. tuberculosis project, secondary assay (AID 492998); type: functional, VeroE6; details: Vero C1008
# [28] = microbe, parasite or virus in culture; type: functional; details: Mycobacterium tuberculosis
smiles,measurement,setting,value
Cc1ccc(C(=O)NNC(=S)NC(=O)COc2ccccc2)cc1,EC50,[1],1.5 µM (active)
same,IC50,[2],36.3 µM (active)
same,CC50,[3],> 25 µM (active)
Cc1cc(Nc2ccccc2)n(-c2ccc(Br)cc2)n1,EC50,[4],2.24 µM (active)
CC1(C)CC(=O)c2c(-c3cccc(Br)c3)n[nH]c2C1,IC50,[5],> 100 µM (not active)
same,IC50,[6],> 100 µM (inactive)
same,IC50,[7],> 100 µM (inactive)
CCN1CCN(c2ccc(S(=O)(=O)N3CCCCC3)cc2NC(=O)COc2ccccc2)CC1,EC50,[1],6.68 µM (active)
same,EC50,[8],> 60 µM (not active)
same,EC50,[9],1.01 µM (active)
CC(/C=C\C=C\c1ccccc1)=N\NC(=O)c1cncc(Br)c1,CC50,[10],35 µM (active)
same,CC50,[11],> 20 µM (active)
same,IC50,[12],12 µM (active)
O=C(c1cc(-c2cc(F)c(Cl)cc2Cl)n[nH]1)N1CCCCCC1,IC50,[5],> 100 µM (not active)
same,IC50,[6],> 100 µM (inactive)
same,IC50,[7],> 100 µM (inactive)
CCN(CCNC(=O)CS(=O)(=O)Cc1nc(-c2cccc(OC)c2)oc1C)c1ccccc1,EC50,[4],1.49 µM (active)
Cc1cc(C)cc(NC(=S)N2CCN(c3ncc(C(F)(F)F)cc3Cl)CC2)c1,EC50,[1],2.66 µM (active)
O=C(CSc1nnc(-c2ccccc2Cl)[nH]1)c1ccc(O)c(O)c1,IC50,[5],> 100 µM (not active)
same,IC50,[6],1.36 µM (active)
same,IC50,[7],8.15 µM (active)
COc1ccc(C2C(O)C(c3c[nH]c4ccccc34)=NN2C(=O)CCl)cc1 (stereo not drawn),AC50,[13],0.954 µM (active)
same,EC50,[14],1.13 µM (inconclusive)
same,EC50,[15],2.65 µM (inconclusive)
same,EC50,[16],0.622 µM (inconclusive)
same,EC50,[17],8.2 µM (active)
same,IC50,[18],1.49 µM (active)
same,EC50,[19],0.582 µM (active)
same,AC50,[20],2.56 µM (active)
same,AC50,[21],2.19 µM (active)
same,EC50,[22],11.1 µM (active)
same,AC50,[23],0.65 µM (active)
same,EC50,[24],1.37 µM (inconclusive)
same,EC50,[25],> 30 µM (not active)
same,EC50,[26],0.443 µM (active)
CN1CC=C(/C=C/c2ccc(-c3ccccc3)cc2)CC1,EC50,[8],8.86 µM (active)
same,CC50,[27],9.99 µM (active)
same,CC50,[28],8.12 µM (active)
same,CC50,[10],23.7 µM (active)
same,CC50,[11],12 µM (active)
same,IC50,[12],26.6 µM (active)
same,EC50,[9],2.12 µM (active)
Cc1ccc(C(=O)Nc2ccc3c(c2)OCO3)cc1S(=O)(=O)N1CCCCC1,EC50,[4],4.78 µM (active)
